Data on two compounds can be found in PMC11165695 (Nature methods, 2024).

For one assay, the system named is SJSA-1 cells. In words: Apoptosis induction / caspase-3/7 activation. The note with it: Supplementary Figure 14. It counts as cell-based.
Assay [1] relates to alkaline phosphatase (ALP). The note with it: pNPP 200 μM, ALP 0.5 U/mL, PBS, room temperature, UV absorbance 405 nm.

Take `COc1cccc2c1C(=O)c1c(O)c3c(c(O)c1C2=O)C[C@@](O)(C(=O)CO)C[C@@H]3O[C@H]1C[C@H](N)[C@H](O)[C@H](C)O1` [Doxorubicin]: in the assay on SJSA-1 cells, the apoptosis induction result was “efficiently induces apoptosis”.

Take `O=[N+]([O-])c1ccc(OP(=O)(O)O)cc1` [P-nitrophenyl phosphate]: in assay [1], the “initial speed (v0), standard substrate” value was found to be 0.53 nmol/min.
